Results as given in patent publication US20030143282A1, “Adenosine A3 receptor agonist” (priority 2002, published 2003).

Tests used:
[1] = test system: B16-F10 melanoma cells; test: Melanoma lung metastatic foci growth in mice inoculated with B16-F10 cells; format: in vivo, C57BL/6J mice; details: adenosine 268 μg/kg body weight, administered orally or intraperitoneally
Experimental: The B-16-F10 murine melanoma cell line was used in the in vitro and in vivo experiments. Cells were maintained in RPMI medium containing 10% FBS, penicillin and streptomycin. They were transferred twice weekly to a freshly prepared medium. To examine the effect of the different preparations on tumor cell growth, B16-F10 (2.5×10^5) melanoma cells were intravenously inoculated to C57BL/6J mice. Each group contained 20 mice and experiments were repeated at least 4 times. Mice were treated orally according to the following protocol starting one day after tumor inoculation: 1. Adenosine—268 μg/kg body weight 2. MCM 4AU twice daily. 3. MCM+ADA, 4AU twice daily. 4. Vehicle—twice daily. An additional group of mice was treated daily intraperitoneally with adenosine (268 μg/kg body weight). Mice were sacrificed after fifteen days, lungs removed and black metastatic foci were counted using a Dissecting Microscope.

[2] = Myeloprotective effect in mice treated with cyclophosphamide; format: in vivo; details: adenosine administered orally or intraperitoneally, after cyclophosphamide
Experimental: The myeloprotective effect of the various preparations were examined by injecting mice intraperitoneally with 50 mg/kg body weight of cyclophosphamide. Each group contained 10 mice and experiments were repeated at least 4 times. Adenosine, MCM (4 activity units) or MCM+ADA (4 activity units) were each orally administered 48 h and 72 h following the chemotherapy. After 120 h blood samples were withdrawn. The number of leukocytes and percent of neutrophils were evaluated.

[3] = test system: B-16-F10 melanoma cells; test: [3H]-thymidine incorporation assay, tumor cell proliferation; format: cell-based, murine; details: B16-F10 cells; 0.1, 0.05 and 0.001 μM
Experimental: The B-16-F10 murine melanoma cell line was used in the in vitro and in vivo experiments. Cells were maintained in RPMI medium containing 10% FBS, penicillin and streptomycin. They were transferred twice weekly to a freshly prepared medium.
(§1) [^3H]-tymidine incorporation assay was used to evaluate cell growth. 1.5×10^4/ml B-16-F10 melanoma or 3×10^5/ml bone marrow cells were cultured in RPMI medium containing 10% FBS in 96 well microtiter plates. These cultures were incubated in the presence of MCM in a concentration of 50%. Since MCM was prepared in PBS, cultures containing tumor or bone marrow cells suspended in 50% PBS served as controls. During the last 18 hours of incubation, each well was pulsed with 1 μCi [^3H]-thymnidine. The cells were harvested and the [^3H]-thymnidine uptake was determined in an LKB liquid scintillation counter (LKB, Piscataway, N.J., USA).
(§2) Results were expressed as % of cell proliferation inhibition or stimulation, calculated according to the following formula: [formula]
where A represents the cell count of sample and B represents the cell count of the control. According to this calculation control values are 0% of inhibition or stimulation. […]
(§3) In this set of experiments, the question whether the effect of MCM+ADA on tumor or normal cells was mediated through A3AR was examined. […] [^3H]-thymidine uptake was determined as described above.

[4] = test system: bone marrow cells; test: [3H]-thymidine incorporation assay, bone marrow cell proliferation; format: cell-based, C57BL/6J mice; details: 0.1, 0.05 and 0.001 μM
Experimental: Bone marrow cells were obtained from the femur of C57BL/6J mice. Cells were disaggregated by passing through a 25 G needle.
as §1, §2
where A represents the cell count of sample and B represents the cell count of the control. According to this calculation control values are 0% of inhibition or stimulation.
To eliminate adenosine from MCM preparations, adenosine deaminase (ADA) (Sigma, Chemical Co. St. Louis, Mo., USA) was added to the MCM for 1 hour. […]
as §3

SMILES | inhibition of tumor growth [1] | chemoprotective effect [2] | effect of MRS-1220 by itself on proliferation [3] | effect of MRS-1220 by itself on proliferation [4]
Nc1ncnc2c1ncn2[C@@H]1O[C@H](CO)[C@@H](O)[C@H]1O [Adenosine, adenosine] | failed to inhibit tumor growth | failed to inhibit tumor growth or act as a chemoprotective agent |  | 
O=C(Cc1ccccc1)Nc1nc2ccc(Cl)cc2c2nc(-c3ccco3)nn12 [MRS-1220, 9-chloro-2-(2-furanyl)-5-[(phenylacetyl)amino] [1,2,4,]-triazolo[1,5-c] quinazoline] |  |  | no effect | no effect
